Laboratory results as given in patent publication US20100311759A1, “ANTIPARASITIC AGENT FOR FISH AND METHOD OF CONTROLLING PROLIFERATION OF FISH PARASITES” (NIPPON SUISAN KAISHA, LTD., priority 2007, published 2010).

System: Cryptocaryon irritans
Assay: Example 1: oral administration against parasitism of Cryptocaryon irritans on Pagrus major (1)
Conditions: 50 mg trimethoprim/kg body weight/day orally three days; three days after the exposure

| Compound | number of parasites (left gills, FIG. 1, control plot = one) |
| --- | --- |
| COc1cc(Cc2cnc(N)nc2N)cc(OC)c1OC [trimethoprim] | tend to be large |

System: Cryptocaryon irritans
Assay: Examples 3 and 4: oral administration of single inhibitors and a combination, body length of Cryptocaryon irritans on Pagrus major (FIG. 4)
Assay type: in vivo
Conditions: 60 mg/kg fish body weight/day for three days; 60 parasites per plot; P≦0.01
From the text: During the rearing period, 1.4 liters/min. of seawater was supplied. […] After exposure, seven fish each were moved into six 100-liter aquariums. During the rearing period, 1.4 liters/min. of seawater was supplied.

| Compound | growth rate of parasites (body length as percentage of control plot), difference from control plot |
| --- | --- |
| N=C(N)c1ccc(OCCCCCOc2ccc(C(=N)N)cc2)cc1.O=S(=O)(O)CCO.O=S(=O)(O)CCO [PMD, isethionic acid pentamidine salt] | statistically significant difference |
| CN(Cc1cnc2nc(N)nc(N)c2n1)c1ccc(C(=O)N[C@@H](CCC(=O)O)C(=O)O)cc1 [methotrexate] | statistically significant difference |
| COc1cc(Cc2cnc(N)nc2N)cc(OC)c1OC [trimethoprim] | statistically significant difference |

Same assay, conditions: 300 mg/kg fish body weight/day for three days; 60 parasites per plot; P≦0.01

| Compound | growth rate of parasites (body length as percentage of control plot), difference from control plot |
| --- | --- |
| COc1cc(NS(=O)(=O)c2ccc(N)cc2)nc(OC)n1 [sulfadimethoxine] | statistically significant difference |
| Cc1ccnc(NS(=O)(=O)c2ccc(N)cc2)n1 [sulfamerazine] | statistically significant difference |
| Cc1nnc(NS(=O)(=O)c2ccc(N)cc2)s1 [sulfamethizole] | statistically significant difference |
| COc1cc(NS(=O)(=O)c2ccc(N)cc2)ncn1 [sulfamonomethoxine] | statistically significant difference |
| Cc1cc(NS(=O)(=O)c2ccc(N)cc2)nc(C)n1 [sulfisomidine] | statistically significant difference |
| sulfisozole | statistically significant difference |
